SMILES strings stand for the structures.

The target in the first test is T1, human CCR5 (Homo sapiens, UniProt P51681).
T1 construct: expressed in transfected cells
T1 sequence (P51681 whole entry): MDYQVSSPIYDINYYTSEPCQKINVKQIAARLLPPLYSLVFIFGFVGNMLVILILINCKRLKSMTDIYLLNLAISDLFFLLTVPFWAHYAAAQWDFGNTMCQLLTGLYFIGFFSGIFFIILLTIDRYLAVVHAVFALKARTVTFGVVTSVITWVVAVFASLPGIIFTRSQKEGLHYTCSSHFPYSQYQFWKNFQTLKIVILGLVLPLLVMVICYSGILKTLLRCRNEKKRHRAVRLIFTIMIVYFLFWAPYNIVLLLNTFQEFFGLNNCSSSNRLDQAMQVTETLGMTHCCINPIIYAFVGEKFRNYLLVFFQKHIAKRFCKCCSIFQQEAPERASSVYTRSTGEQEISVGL
Kind of test: Inhibition of [125I]-RANTES binding to CCR5/CHO cells (CCR5 antagonist activity). The following applies: 40 min, test compound 1 μM, [125I]-RANTES 100 pM, CCR5/CHO strains, room temperature, read-out: Binding Inhibitory Ratio (%). How it is done: Cloning of a CCR5 gene was conducted from human spleen cDNA by a PCR method. Using 0.5 ng of spleen cDNA (Toyobo Co., Ltd., QUICK-Clone cDNA) as a template, the PCR reaction was carried out in a DNA Thermal Cycler 480 (Perkin Elmer) using a TaKaRa EX Taq (Takara Shuzo Co., Ltd.) (reaction conditions: 30 cycles of treatments at 95° C. for 1 minute, at 60° C. for 1 minute, and at 75° C. for 5 minutes) by adding 25 pmol of primers, SEQ ID NO. 1 (sequence length: 34; sequence type: nucleic acid; number of chains: a single chain; topology: linear; sequence kind: other nucleic acid, synthetic DNA) described in Experimental Example (1) of WO 99/32100, and SEQ ID NO. 2 (sequence length: 34; sequence type: nucleic acid; number of chains: a single chain; topology: linear; sequence kind: other nucleic acid, synthetic DNA) described in Experimental Example (1) of WO 99/32100, respectively, which were prepared by referring to the base sequence of the CCR5 gene described by Samson et al. (Biochemistry 35 (11), 3362-3367 (1996)). The PCR products were subjected to agarose gel electrophoresis to collect DNA fragments of about 1.0 kb. Then, the CCR5 gene was cloned using an Original TA Cloning Kit (Funakoshi Co., Ltd.).
The plasmids obtained above were digested with restriction enzymes XbaI (Takara Shuzo Co., Ltd.) and BamHI (Takara Shuzo Co., Ltd.), and subjected to agarose gel electrophoresis to collect DNA fragments of about 1.0 kb. The DNA fragments and a plasmid pcDNA3.1 (Funakoshi Co., Ltd.) for expression in animal cells, which was previously digested with XbaI and BamHI, were mixed and ligated by DNA Ligation Kit Ver.2 (Takara Shuzo Co., Ltd.). Transformation of E. coli JM109 competent cells (Takara Shuzo Co., Ltd.) gave plasmid pCKR5.
CHO-K1 cells grown in a 750 ml tissue culture flask (Becton Dickinson) using Ham's F12 medium (Nihon Pharmaceutical Co., Ltd.) containing 10% fetal bovine serum (Lifetech Oriental) were collected from the flask by using 0.5 g/L trypsin-0.2 g/L EDTA (Lifetech Oriental). The cells were then washed with PBS (Lifetech Oriental), centrifuged (1000 rpm, 5 minutes), and suspended in PBS. Next, DNA was introduced into the cells using Gene Pulser (Bio-Rad Laboratories Inc.) under the following conditions. Namely, 8×10^6 cells and 10 μg of plasmid pCKR5 for expression of human CCR5 were added into a cuvette of a 0.4 cm-gap, and electroporation was carried out at an electric voltage of 0.25 kV and a capacitance of 960 μF. Subsequently, the cells were transferred into Ham's F12 medium containing 10% fetal bovine serum, and incubated for 24 hours. The cells were again collected, centrifuged, and then suspended in Ham's F12 medium containing 10% fetal bovine serum and Geneticin (Lifetech Oriental) at a concentration of 500 μg/ml. The suspension of cells was diluted to a concentration of 10^4 cells/ml, and inoculated on a 96-well plate (Becton Dickinson) to give Geneticin-resistant strains.
Subsequently, the Geneticin-resistant strains were cultured in the 96-well plate (Becton Dickinson), and then CCR5-expressing cells were selected from the resistant strains. Namely, an assay buffer (Ham's F12 medium containing 0.5% BSA, and 20 mM HEPES (Wako Pure Chemical Industries, Ltd., pH 7.2)) containing 200 pM [^125I]-RANTES (Amersham) as a ligand was added to each well and the binding reaction was carried out at room temperature for 40 minutes. Each well plate containing the cells was washed with ice-cooled PBS, and then to each well was added 1 M NaOH in an amount of 50 μl/well, which was stirred. The cells to which the ligand bound specifically, i.e., CCR5/CHO strains, were selected by measurement of radioactivity by γ-counter.
The CCR5/CHO strains were inoculated on a 96-well microplate at a concentration of 5×10^4 cells/well, respectively and were cultured for 24 hours. […]
For the compound `CCCCOCCOc1ccc(-c2ccc(N3CCC(C(=O)O)C3)c(/C=C(\C)C(=O)Nc3ccc([S@@+]([O-])Cc4cncn4CCC)cc3)c2)cc1` (single isomer, unassigned) [Compound 59, (Ss)-(2E)-3-[4′-(2-butoxyethoxy)-4-(3-carboxypyrrolidin-1-yl)-1,1′-biphenyl-3-yl]-2-methyl-N-[4-[[(1-propyl-1H-imidazol-5-yl)methyl]sulfinyl]phenyl]acrylamide], the inhibition at 1 µM was 89%.
On the same count and under the same terms, next, `CCCCOCCOc1ccc(-c2cnc(N3CCC(C)C3)c(/C=C(\C)C(=O)Nc3ccc([S@@+]([O-])Cc4cncn4CCC)cc3)c2)cc1` (stereo partly drawn) [Compound 48, (Ss)-(2E)-3-[5-[4-(2-butoxyethoxy)phenyl]-2-(3-methylpyrrolidin-1-yl)pyridin-3-yl]-2-methyl-N-[4-[[(1-propyl-1H-imidazol-5-yl)methyl]sulfinyl]phenyl]acrylamide]: 98%; `CCCCOCCOc1ccc(-c2ccc(N3CCC(C)C3)c(/C=C(\C)C(=O)Nc3ccc([S@@+]([O-])Cc4cncn4CCC)cc3)c2)cc1` (stereo partly drawn) [Compound 23, (Ss)-(2E)-3-[4′-(2-butoxyethoxy)-4-(3-methylpyrrolidin-1-yl)-1,1′-biphenyl-3-yl]-2-methyl-N-[4-[[(1-propyl-1H-imidazol-5-yl)methyl]sulfinyl]phenyl]acrylamide]: 100%; `CCCCOCCOc1ccc(-c2cnc(N3CCCC3)c(/C=C(\C)C(=O)Nc3ccc([S@@+]([O-])Cc4cncn4CCC)cc3)c2)cc1` [Compound 47, (S)-(2E)-3-[5-[4-(2-butoxyethoxy)phenyl]-2-pyrrolidin-1-ylpyridin-3-yl]-2-methyl-N-[4-[[(1-propyl-1H-imidazol-5-yl)methyl]sulfinyl]phenyl]acrylamide]: 96%.
With `CCCCOCCOc1ccc(-c2cnc(N3CCC(CO)C3)c(/C=C(\C)C(=O)Nc3ccc([S@@+]([O-])Cc4cncn4CCC)cc3)c2)cc1` (stereo partly drawn) [Compound 50, (Ss)-(2E)-3-[5-[4-(2-butoxyethoxy)phenyl]-2-[3-(hydroxymethyl)pyrrolidin-1-yl]pyridin-3-yl]-2-methyl-N-[4-[[(1-propyl-1H-imidazol-5-yl)methyl]sulfinyl]phenyl]acrylamide], the inhibition at 1 µM turned out to be 100%.
Still for that read-out and setting: next, `CCCCOCCOc1ccc(-c2ccc(N3CCC(C(N)=O)C3)c(/C=C(\C)C(=O)Nc3ccc([S@@+]([O-])Cc4cncn4CCC)cc3)c2)cc1` (stereo partly drawn) [Compound 43, (Ss)-(2E)-3-[4′-(2-butoxyethoxy)-4-(3-carbamoylpyrrolidin-1-yl)-1,1′-biphenyl-3-yl]-2-methyl-N-[4-[[(1-propyl-1H-imidazol-5-yl)methyl]sulfinyl]phenyl]acrylamide]: 86%; `CCCCOCCOc1ccc(-c2cnc(N3CCC(COC(C)=O)C3)c(/C=C(\C)C(=O)Nc3ccc([S@@+]([O-])Cc4cncn4CCC)cc3)c2)cc1` (stereo partly drawn) [Compound 49, (Ss)-(2E)-3-[2-[3-(acetoxymethyl)pyrrolidin-1-yl]-5-[4-(2-butoxyethoxy)phenyl]pyridin-3-yl]-2-methyl-N-(4-[[(1-propyl-1H-imidazol-5-yl)methyl]sulfinyl]phenyl]acrylamide]: 100%.
For the compound `CCCCOCCOc1ccc(-c2ccc(N3CCC(CC(=O)OCC)C3)c(/C=C(\C)C(=O)Nc3ccc([S@@+]([O-])Cc4cncn4CCC)cc3)c2)cc1` (stereo partly drawn) [Compound 61, (Ss)-(2E)-3-[4′-(2-butoxyethoxy)-4-[3-(2-ethoxy-2-oxoethyl)pyrrolidin-1-yl]-1,1′-biphenyl-3-yl]-2-methyl-N-(4-[[(1-propyl-1H-imidazol-5-yl)methyl]sulfinyl]phenyl]acrylamide], the inhibition at 1 µM was found to be 94%.

Staying with this test, now noted: test compound 1 μM; [125I]-RANTES 100 pM; CCR5/CHO strains; room temperature, 40 minutes.
As to `CCCCOCCOc1ccc(-c2cc(/C=C(\C)C(=O)Nc3ccc([S@@+]([O-])Cc4cncn4CCC)cc3)c3c(c2)CCCN3C)cc1` [Compound 29, (S)-(2E)-3-[6-[4-(2-butoxyethoxy)phenyl]-1-methyl-1,2,3,4-tetrahydroquinolin-8-yl]-2-methyl-N-[4-[[(1-propyl-1H-imidazol-5-yl)methyl]sulfinyl]phenyl]-2-acrylic amide], the “Binding Inhibitory Ratio (%)” value was 100%.

The values above are taken from patent US20060160864A1, “Acrylamide derivative, process for producing the same, and use” (priority 2003, published 2006).
